Data set [1] concerns lasered (hypertensive) eyes of conscious cynomolgus monkeys. The data set is described as follows: Acute IOP response in lasered (hypertensive) eyes of conscious cynomolgus monkeys. Format: in vivo, cynomolgus monkey. To be noted: 300 μg topical, lasered eye. As for the experimental part:
Intraocular pressure (IOP) was determined with an Alcon Pneumatonometer after light corneal anesthesia with 0.1% proparacaine. Eyes were washed with saline after each measurement. After a baseline IOP measurement, test compound was instilled in one 30 μL aliquot to the right eyes only of nine cynomolgus monkeys. Vehicle was instilled in the right eyes of six additional animals. Subsequent IOP measurements were taken at 1, 3, and 6 hours. A compound is considered efficacious in this model of ocular hypertension if there is a decrease in the baseline IOP of the lasered eye (O.D.) of at least 20% following topical administration.

For data set [2], the target named is T1, 5-HT2 receptor (Rattus norvegicus, UniProt P14842).
T1 construct: A7r5 rat vascular smooth muscle cells; endogenous in cells; host or cells: A7r5 rat vascular smooth muscle cells
T1 sequence (P14842 whole entry): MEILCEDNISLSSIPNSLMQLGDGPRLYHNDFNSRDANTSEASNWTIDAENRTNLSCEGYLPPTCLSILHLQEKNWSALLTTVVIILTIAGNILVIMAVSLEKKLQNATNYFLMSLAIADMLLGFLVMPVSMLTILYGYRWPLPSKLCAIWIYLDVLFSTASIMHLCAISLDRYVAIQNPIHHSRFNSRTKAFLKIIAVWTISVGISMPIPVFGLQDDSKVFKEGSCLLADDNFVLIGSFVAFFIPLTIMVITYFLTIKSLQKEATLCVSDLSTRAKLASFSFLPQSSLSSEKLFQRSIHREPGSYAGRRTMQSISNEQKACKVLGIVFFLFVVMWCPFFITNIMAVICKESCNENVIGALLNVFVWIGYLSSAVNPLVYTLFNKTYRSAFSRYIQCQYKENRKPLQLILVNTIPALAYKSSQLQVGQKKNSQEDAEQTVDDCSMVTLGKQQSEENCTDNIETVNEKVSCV
The data set is described as follows: 5-HT2 functional assay: phosphoinositide (PI) turnover assay. It counts as cell-based. To be noted: for Emax: A7R5, read-out: Efficacy (Emax, %). As for the experimental part: The relative agonist activity of serotonergic compounds at the 5-HT2 receptor can be determined in vitro using the ability of the compounds to stimulate the production of [^3H]inositol phosphates in [^3H]myo-inositol-labeled A7r5 rat vascular smooth muscle cells by their ability to activate the enzyme phospholipase C. These cells are grown in culture plates, maintained in a humidified atmosphere of 5% CO2 and 95% air and fed semi-weekly with Dulbecco's modified Eagle medium (DMEM) containing 4.5 g/L glucose and supplemented with 2 mM glutamine, 10 μg/ml gentamicin, and 10% fetal bovine serum. For the purpose of conducting the phosphoinositide (PI) turnover experiments, the A7r5 cells are cultured in 24-well plates as previously [J. Pharmacol. Expt. Ther. 286, 411 (1998)]. Confluent cells are exposed for 24-30 hrs to 1.5 μCi [^3H]-myo-inositol (18.3 Ci/mmol) in 0.5 mL of serum-free medium. Cells are then rinsed once with DMEM/F-12 containing 10 mM LiCl prior to incubation with the test agent (or solvent as the control) in 1.0 mL of the same medium for 1 hr at 37° C., after which the medium is aspirated and 1 mL of cold 0.1 M formic acid added to stop the reaction. The chromatographic separation of [^3H]-inositol phosphates ([^3H]-IPs) on an AG-1-X8 column is performed as previously described [J. Pharmacol. Expt. Ther. 286, 411 (1998)] with sequential washes with H2O and 50 mM ammonium formate, followed by elution of the total [^3H]-IPs fraction with 1.2 M ammonium formate containing 0.1 M formic acid. The eluate (4 mL) is collected, mixed with 15 ml scintillation fluid, and the total [^3H]-IPs determined by scintillation counting on a beta-counter. Concentration-response data are analyzed by the sigmoidal fit function of the Origin Scientific Graphics software (Microcal Software, Northampton, MA) to determine agonist potency (EC50 value) and efficacy (Emax).

Turning to `CC(N)Cn1nc2c3c(cc(O)cc31)CCC2.Cl.Cl` (stereo not drawn) [Example 1, 2-(2-Aminopropyl)-2,6,7,8-tetrahydro-benzo[cd]indazol-4-ol dihydrochloride], the melting point – broadly, the temperature, or range, at which the solid turns liquid – lay within 286 to 288 °C. Besides, the “Percent Change in IOP ± SEM” value in data set [1] (1 hour after dose) is listed as −5.9 ± 2.69%. Moreover, in data set [1] (3 hours after dose), the “Percent Change in IOP ± SEM” value is given as −20.0 ± 3.54%. The “Percent Change in IOP ± SEM” value in data set [1] (6 hours after dose) is −21.6 ± 4.91%. Moreover, in data set [2], the EC50 (in general, the concentration needed to bring the measured effect to its halfway point) turned out to be 374 nM and the Emax (as a rule, the size of the effect at its maximum, as opposed to the concentration needed) is 85%.
The compound `CC(N)Cn1nc2c3c(ccc(O)c31)CCC2.Cl.Cl` (stereo not drawn) [Example 2, 2-(2-Aminopropyl)-2,6,7,8-tetrahydro-benzo[cd]indazol-3-ol dihydrochloride] came in with a melting point of 284 to 286 °C. Further, in data set [2], the EC50 came to 1440 nM and the Emax worked out at 55%.

The record behind these values is patent US6960608B2, “Fused indazoles and indoles and their use for the treatment of glaucoma” (Alcon, Inc., priority 2001, dated 2005).
